Where a name gives a salt, the structure may show the parent alone.
Columns and labels:
[1] = Solubility (at 25° C., 24 h equilibration); format: physicochemical; settings: for solubility: 25° C., 24 h
[2] = Dynamic Vapor Sorption, physical stability to humidity; format: physicochemical; settings: for physical stability (DVS): 50%-0%-90% RH

In the case of `Nc1ncc(-c2ccc([C@@]34C[C@@H]3CN(C3CCOCC3)C4)cc2)cc1C(=O)NC12CCC(O)(CC1)CC2` [Fumarate salt Modification HA, 2-amino-N-(4-hydroxybicyclo[2.2.2]octan-1-yl)-5-(4-((1R,5S)-3-(tetrahydro-2H-pyran-4-yl)-3-azabicyclo[3.1.0]hexan-1-yl)phenyl)nicotinamide], the solubility ([1]; Water/7.2, target concentration 2 mg/mL) was greater than 2000 µg/mL, the “solubility compared with free form Modification HA” value ([1]; aqueous buffers) was “better solubility than free form Modification HA in some aqueous buffers” and the solubility at 24 h ([1]; borate buffer, 25 °C, pH 9, aqueous buffer, thermodynamic from solid, pH 9.0 borate buffer/8.6, 24 h, target concentration 2 mg/mL) was 30 µg/mL. For the same molecule, the solubility ([1]; pH 1.0 1N HCl/1.1, target concentration 2 mg/mL) was greater than 2000 µg/mL, the solubility ([1]; pH 2.0 HCl buffer 2.1, target concentration 2 mg/mL) was greater than 2000 µg/mL and the solubility ([1]; pH 2.0 SGF/2.0, target concentration 2 mg/mL) was greater than 2000 µg/mL. For the same molecule, the solubility ([1]; pH 4.7 acetate buffer/4.8, target concentration 2 mg/mL) was greater than 2000 µg/mL, the solubility ([1]; pH 5.8 FeSSIF/5.9, target concentration 2 mg/mL) was greater than 2000 µg/mL and the solubility ([1]; pH 6.5 FaSSIF/6.5, target concentration 2 mg/mL) was 1690 µg/mL. The solubility ([1]; pH 6.8 phosphate buffer/6.8, target concentration 2 mg/mL) was 1080 µg/mL, the “physical stability (DVS)” value ([2]; 25° C.) was “physically stable at least from 0% to 90% RH” and the “physical stability (DVS)” value ([2]; 40° C.) was “physically stable at least from 10% to 90% RH”. The “humidity range of stability compared with free form polymorphs” value ([2]; data not shown) was “stable over a wider humidity range than free form polymorphs”.

— patent publication US10710980B2, “Aminopyridine derivatives and their use as selective ALK-2 inhibitors” (priority 2016, dated 2020)
